Values joined by “and” are separate entries in the source; they are usually repeats but may differ in a detail not shown here. Identical values can stand only once. Inconclusive results and toxic doses are left out. Cut-off read from the data, not from the text of the source: active = T/C of 150% or more; inactive = T/C below 125%.
System: L1210 leukemia ip in BDF1 mice, survival T/C
Test: NCI In Vivo Anticancer Drug Screen. Data for tumor model L1210 Leukemia (intraperitoneal) in B6D2F1 (BDF1) mice
Details: endpoint: mean survival time, higher = longer survival
How it was run: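 Tumor cells were implanted, animals were treated, and survival was followed. The result divides the treated measurement by the vehicle-control measurement.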

[1] = dose: 100.0 mg/kg/injection, schedule: Q01DX009 (ip), vehicle: saline with Tween-80
[2] = dose: 100.0 mg/kg/injection, schedule: Q04DX002 (ip), vehicle: saline with Tween-80
[3] = dose: 200.0 mg/kg/injection, schedule: Q01DX009 (ip), vehicle: saline with Tween-80
[4] = dose: 200.0 mg/kg/injection, schedule: Q04DX002 (ip), vehicle: saline with Tween-80
[5] = dose: 400.0 mg/kg/injection, schedule: Q01DX009 (ip), vehicle: saline with Tween-80
[6] = dose: 400.0 mg/kg/injection, schedule: Q04DX002 (ip), vehicle: saline with Tween-80
[7] = dose: 100.0 mg/kg/injection, schedule: Q01DX001 (ip), vehicle: carboxymethylcellulose (CMC)
[8] = dose: 200.0 mg/kg/injection, schedule: Q01DX001 (ip), vehicle: carboxymethylcellulose (CMC)
[9] = dose: 400.0 mg/kg/injection, schedule: Q01DX001 (ip), vehicle: carboxymethylcellulose (CMC)
[10] = dose: 100.0 mg/kg/injection, schedule: Q01DX001 (ip), vehicle: Klucel (hydroxypropylcellulose) (HPC)
[11] = dose: 200.0 mg/kg/injection, schedule: Q01DX001 (ip), vehicle: Klucel (hydroxypropylcellulose) (HPC)
[12] = dose: 400.0 mg/kg/injection, schedule: Q01DX001 (ip), vehicle: Klucel (hydroxypropylcellulose) (HPC)
[13] = dose: 100.0 mg/kg/injection, schedule: Q04DX002 (ip), vehicle: Klucel (hydroxypropylcellulose) (HPC)
[14] = dose: 200.0 mg/kg/injection, schedule: Q04DX002 (ip), vehicle: Klucel (hydroxypropylcellulose) (HPC)
[15] = dose: 400.0 mg/kg/injection, schedule: Q04DX002 (ip), vehicle: Klucel (hydroxypropylcellulose) (HPC)
[16] = dose: 100.0 mg/kg/injection, schedule: Q01DX009 (ip), vehicle: Klucel (hydroxypropylcellulose) (HPC)
[17] = dose: 100.0 mg/kg/injection, schedule: Q04DX003 (ip), vehicle: Klucel (hydroxypropylcellulose) (HPC)
[18] = dose: 200.0 mg/kg/injection, schedule: Q01DX009 (ip), vehicle: Klucel (hydroxypropylcellulose) (HPC)
[19] = dose: 200.0 mg/kg/injection, schedule: Q04DX003 (ip), vehicle: Klucel (hydroxypropylcellulose) (HPC)
[20] = dose: 400.0 mg/kg/injection, schedule: Q01DX009 (ip), vehicle: Klucel (hydroxypropylcellulose) (HPC)
[21] = dose: 400.0 mg/kg/injection, schedule: Q04DX003 (ip), vehicle: Klucel (hydroxypropylcellulose) (HPC)
[22] = dose: 100.0 mg/kg/injection, schedule: Q04DX003 (ip), vehicle: saline
[23] = dose: 200.0 mg/kg/injection, schedule: Q04DX003 (ip), vehicle: saline
[24] = dose: 400.0 mg/kg/injection, schedule: Q04DX003 (ip), vehicle: saline
[25] = dose: 100.0 mg/kg/injection, schedule: Q04DX003 (ip), vehicle: saline with Tween-80
[26] = dose: 200.0 mg/kg/injection, schedule: Q04DX003 (ip), vehicle: saline with Tween-80
[27] = dose: 50.0 mg/kg/injection, schedule: Q01DX009 (ip), vehicle: saline with Tween-80

Measured: T/C

COc1ccc(Cl)cc1NC(=O)Oc1c(C)cccc1C
inactive: dose: 100.0 mg/kg/injection, schedule: Q01DX001 (ip), vehicle: saline with Tween-80 106 % of control | [1] 96 % of control | [2] 95 % of control and 89 % of control | dose: 200.0 mg/kg/injection, schedule: Q01DX001 (ip), vehicle: saline with Tween-80 90 % of control | [3] 98 % of control | [4] 95 % of control and 97 % of control | dose: 400.0 mg/kg/injection, schedule: Q01DX001 (ip), vehicle: saline with Tween-80 96 % of control | [5] 102 % of control | [6] 95 % of control and 98 % of control

Cc1ccc(C(=O)c2ccccc2N)cc1C
inactive: [7] 100 % of control | [8] 116 % of control | [9] 102 % of control

CC(CO)CCCC(C)C1C(O)CC2C3CCC4CC(O)CCC4(C)C3CCC21C (stereo unspecified)
inactive: [10] 88 % of control | [11] 88 % of control | [12] 91 % of control

O=C(COc1ccccc1Cl)Nc1cccnc1
inactive: [10] 113 % of control | [11] 103 % of control | [12] 103 % of control

Cc1cccc(C(=O)C(O)(c2ccccc2)C2CCCCC2=O)c1 (stereo unspecified)
inactive: [13] 100 % of control | [14] 92 % of control | [15] 114 % of control

COc1ccc(C(=O)NC(=S)Nc2cccc(Cl)c2)cc1
inactive: [16] 91 % of control | [17] 94 % of control | [18] 98 % of control | [19] 91 % of control | [20] 87 % of control | [21] 93 % of control

O=C(Nc1cc([N+](=O)[O-])ccc1S(=O)(=O)c1ccc([N+](=O)[O-])cc1NC(=O)c1ccccc1)c1ccccc1
inactive: dose: 75.0 mg/kg/injection, schedule: Q04DX003 (ip), vehicle: saline 92 % of control | dose: 100.0 mg/kg/injection, schedule: Q01DX001 (ip), vehicle: saline 93 % of control | dose: 150.0 mg/kg/injection, schedule: Q04DX003 (ip), vehicle: saline 124 % of control | dose: 200.0 mg/kg/injection, schedule: Q01DX001 (ip), vehicle: saline 94 % of control | dose: 300.0 mg/kg/injection, schedule: Q04DX003 (ip), vehicle: saline 92 % of control | dose: 400.0 mg/kg/injection, schedule: Q01DX001 (ip), vehicle: saline 94 % of control

S=P(/C=C/c1ccccc1)(c1ccccc1)c1ccccc1
inactive: [16] 97 % of control | [17] 95 % of control | [18] 92 % of control | [19] 92 % of control | [21] 92 % of control

COc1ccc(C(=O)c2cc(OC)c(OC)c(OC)c2)cc1OC
inactive: dose: 50.0 mg/kg/injection, schedule: Q04DX003 (ip), vehicle: saline 98 % of control | [7] 102 % of control | dose: 100.0 mg/kg/injection, schedule: Q01DX009 (ip), vehicle: saline 108 % of control | [22] 100 % of control | [8] 103 % of control | dose: 200.0 mg/kg/injection, schedule: Q01DX009 (ip), vehicle: saline 112 % of control | [23] 104 % of control | [9] 103 % of control | dose: 400.0 mg/kg/injection, schedule: Q01DX009 (ip), vehicle: saline 101 % of control | [24] 96 % of control

O=C1OCc2cc3ccccc3nc21
inactive: [1] 94 % of control | [25] 105 % of control | [3] 97 % of control | [26] 105 % of control | [5] 92 % of control | dose: 400.0 mg/kg/injection, schedule: Q04DX003 (ip), vehicle: saline with Tween-80 96 % of control

CC(=O)Nc1ccc2ccc3ccc4ccccc4c3c2c1
inactive: dose: 3.12 mg/kg/injection, schedule: Q04DX002 (ip), vehicle: saline with Tween-80 111 % of control | dose: 6.25 mg/kg/injection, schedule: Q04DX002 (ip), vehicle: saline with Tween-80 111 % of control | dose: 12.5 mg/kg/injection, schedule: Q04DX002 (ip), vehicle: saline with Tween-80 108 % of control | dose: 25.0 mg/kg/injection, schedule: Q04DX002 (ip), vehicle: saline with Tween-80 103 % of control | dose: 50.0 mg/kg/injection, schedule: Q04DX002 (ip), vehicle: saline with Tween-80 102 % of control

COC(=O)c1ccc(OCc2ccccc2)cc1
inactive: [17] 103 % of control | [19] 100 % of control | [21] 92 % of control

CCOC(=O)c1ccc(NC(=S)NC(Cc2ccccc2)c2ccccc2)cc1 (stereo unspecified)
inactive: [2] 98 % of control | [4] 95 % of control | [6] 95 % of control

S=C(SC(=S)N(C1CCCCC1)C1CCCCC1)N(C1CCCCC1)C1CCCCC1
inactive: dose: 25.0 mg/kg/injection, schedule: Q01DX009 (ip), vehicle: saline with Tween-80 92 % of control | [27] 90 % of control | [1] 86 % of control and 89 % of control

O=CNC(CSC(c1ccccc1)c1ccccc1)C(=O)O (stereo unspecified)
inactive: dose: 40.0 mg/kg/injection, schedule: Q01DX009 (ip), vehicle: Klucel (hydroxypropylcellulose) (HPC) 108 % of control | dose: 75.0 mg/kg/injection, schedule: Q01DX001 (ip), vehicle: Klucel (hydroxypropylcellulose) (HPC) 86 % of control | dose: 75.0 mg/kg/injection, schedule: Q01DX009 (ip), vehicle: Klucel (hydroxypropylcellulose) (HPC) 105 % of control | dose: 150.0 mg/kg/injection, schedule: Q01DX001 (ip), vehicle: Klucel (hydroxypropylcellulose) (HPC) 93 % of control | dose: 150.0 mg/kg/injection, schedule: Q01DX009 (ip), vehicle: Klucel (hydroxypropylcellulose) (HPC) 103 % of control

NC(=O)C(NC(=O)c1ccc([N+](=O)[O-])cc1)SCc1ccccc1 (stereo unspecified)
inactive: dose: 100.0 mg/kg/injection, schedule: Q04DX002 (ip), vehicle: gum acacia 96 % of control | dose: 200.0 mg/kg/injection, schedule: Q04DX002 (ip), vehicle: gum acacia 90 % of control | dose: 400.0 mg/kg/injection, schedule: Q04DX002 (ip), vehicle: gum acacia 86 % of control

CCCCSC(C)(SCCCC)SCCCC
inactive: [2] 97 % of control | [4] 101 % of control | [6] 116 % of control

O=C1OC(c2cccc(Cl)c2)=N/C1=C\c1cc(Br)ccc1O
inactive: [2] 89 % of control | [4] 96 % of control | [6] 89 % of control

O=C1NC(O)C(O)N1 (stereo unspecified)
inactive: [16] 104 % of control | [17] 100 % of control | [18] 96 % of control | [19] 96 % of control | [20] 105 % of control | [21] 100 % of control

CC1(C)C(N2CCCCC2)CS1(=O)=O (stereo unspecified)
inactive: dose: 12.5 mg/kg/injection, schedule: Q01DX009 (ip), vehicle: saline sonified 103 % of control | dose: 25.0 mg/kg/injection, schedule: Q01DX009 (ip), vehicle: saline sonified 98 % of control | dose: 50.0 mg/kg/injection, schedule: Q01DX009 (ip), vehicle: saline sonified 94 % of control

c1ccc2c(c1)cc[n+]1c3ccccc3ccc21
inactive: dose: 1.25 mg/kg/injection, schedule: Q01DX001 (ip), vehicle: saline 97 % of control | dose: 2.5 mg/kg/injection, schedule: Q01DX001 (ip), vehicle: saline 97 % of control | dose: 5.0 mg/kg/injection, schedule: Q01DX001 (ip), vehicle: saline 103 % of control | dose: 10.0 mg/kg/injection, schedule: Q01DX001 (ip), vehicle: saline 107 % of control

N#Cc1ncc(-c2ccccc2)nc1Cl
inactive: [27] 94 % of control | [1] 96 % of control | [25] 97 % of control | [3] 92 % of control | [26] 95 % of control

CC(=O)c1cccc(NC(=O)COc2cc(Cl)c(Cl)cc2Cl)c1
inactive: [13] 106 % of control | [14] 113 % of control | [15] 102 % of control

CC(C(=O)c1ccccc1)S(=O)(=O)O (stereo unspecified)
inactive: [22] 102 % of control | [23] 94 % of control | [24] 96 % of control
